Assay [1] in a line: Antagonist activity at human CCR4 receptor assessed as inhibition of CCL22-induced chemotaxis by bioluminescent assay.
Assay [2] in a line: Antagonist activity at mouse CCR4 receptor assessed as inhibition of CCL22-induced chemotaxis by bioluminescent assay.

The structures appear in SMILES notation. pIC50: −log10 of the molar value.

Consider `COc1cc2nc(N3CCC(N(C)CCCO)CC3)nc(Nc3ccc(Cl)cc3)c2cc1OC` [3-[(1-{4-[(4-Chlorophenyl)amino]-6,7-dimethoxyquinazolin-2-yl}piperidin-4-yl)(methyl)amino]propan-1-ol], for which the negative logarithm of the IC50 (pIC50) in assay [1] was 6.55.

Consider `COc1cc2nc(N3CCC(N(C)CCCCO)CC3)nc(Nc3ccc(Cl)cc3)c2cc1OC` [4-[(1-{4-[(4-Chlorophenyl)amino]-6,7-dimethoxyquinazolin-2-yl}piperidin-4-yl)(methyl)amino]butan-1-ol], for which, in assay [1], the negative logarithm of the IC50 (pIC50) is 6.44.

Take `COc1cc2nc(N3CCC(N4CCCC4)CC3)nc(Nc3ccc(F)c(F)c3)c2cc1OC` [N-(3,4-Difluorophenyl)-6,7-dimethoxy-2-(4-pyrrolidin-1-ylpiperidin-1-yl)quinazolin-4-amine]: the negative logarithm of the IC50 (pIC50) in assay [2] was 6.09; in assay [1] it was 7.16.

`COc1cc2nc(N3CCC(N4CCCC4)CC3)nc(Nc3ccc(F)cc3)c2cc1OC` [N-(4-Fluorophenyl)-6,7-dimethoxy-2-(4-pyrrolidin-1-ylpiperidin-1-yl)quinazolin-4-amine]: the pIC50 in assay [2] is 6.15; in assay [1], 6.49.

The values above are taken from BindingDB's records for doi:10.1016/j.bmc.2008.07.062 (Astellas Pharma, 2008).
